Assay [1] addresses T1, Receptor tyrosine-protein kinase erbB-2 (Homo sapiens, UniProt P04626). Description: Inhibition of ERBB2 receptor kinase (No effect).
The target in assay [2] is T2, Angiopoietin-1 receptor (Homo sapiens, UniProt Q02763). The experiment in a line: Inhibition of Tyrosine protein kinase receptor TIE-2.
Assay [3] concerns the target T3, Epidermal growth factor receptor (Homo sapiens, UniProt P00533). Description: Inhibition of Epidermal growth factor receptor.
Assay [4] addresses T4, Vascular endothelial growth factor receptor 2 (Homo sapiens, UniProt P35968). Description: Inhibition of Vascular endothelial growth factor receptor 2.
The target of assay [5] is T5, Insulin-like growth factor 1 receptor (Homo sapiens, UniProt P08069). Description: Inhibition of Insulin-like growth factor I receptor.
The target in assay [6] is T6, Vascular endothelial growth factor receptor 3 (Homo sapiens, UniProt P35916). Description: Inhibition of Vascular endothelial growth factor receptor 3 (No effect).
Assay [7] deals with T4, Vascular endothelial growth factor receptor 2. Description: Inhibition of Vascular endothelial growth factor receptor 2 (No effect).
Assay [8] has as its target T6, Vascular endothelial growth factor receptor 3. Description: Inhibition of Vascular endothelial growth factor receptor 3.
The target of assay [9] is T5, Insulin-like growth factor 1 receptor. Description: Inhibition of Insulin-like growth factor I receptor (No effect).
Assay [10] has as its target T1, Receptor tyrosine-protein kinase erbB-2. Description: Inhibition of ERBB2 receptor kinase.
Assay [11] addresses T3, Epidermal growth factor receptor. The experiment in a line: Inhibition of Epidermal growth factor receptor (No effect).
Assay [12] has as its target T2, Angiopoietin-1 receptor. Description: Inhibition of Tyrosine protein kinase receptor TIE-2 (No effect).

Activity calls are given as the source filed them. No cut-off for these calls is given here.

T4 sequence (P35968 whole entry): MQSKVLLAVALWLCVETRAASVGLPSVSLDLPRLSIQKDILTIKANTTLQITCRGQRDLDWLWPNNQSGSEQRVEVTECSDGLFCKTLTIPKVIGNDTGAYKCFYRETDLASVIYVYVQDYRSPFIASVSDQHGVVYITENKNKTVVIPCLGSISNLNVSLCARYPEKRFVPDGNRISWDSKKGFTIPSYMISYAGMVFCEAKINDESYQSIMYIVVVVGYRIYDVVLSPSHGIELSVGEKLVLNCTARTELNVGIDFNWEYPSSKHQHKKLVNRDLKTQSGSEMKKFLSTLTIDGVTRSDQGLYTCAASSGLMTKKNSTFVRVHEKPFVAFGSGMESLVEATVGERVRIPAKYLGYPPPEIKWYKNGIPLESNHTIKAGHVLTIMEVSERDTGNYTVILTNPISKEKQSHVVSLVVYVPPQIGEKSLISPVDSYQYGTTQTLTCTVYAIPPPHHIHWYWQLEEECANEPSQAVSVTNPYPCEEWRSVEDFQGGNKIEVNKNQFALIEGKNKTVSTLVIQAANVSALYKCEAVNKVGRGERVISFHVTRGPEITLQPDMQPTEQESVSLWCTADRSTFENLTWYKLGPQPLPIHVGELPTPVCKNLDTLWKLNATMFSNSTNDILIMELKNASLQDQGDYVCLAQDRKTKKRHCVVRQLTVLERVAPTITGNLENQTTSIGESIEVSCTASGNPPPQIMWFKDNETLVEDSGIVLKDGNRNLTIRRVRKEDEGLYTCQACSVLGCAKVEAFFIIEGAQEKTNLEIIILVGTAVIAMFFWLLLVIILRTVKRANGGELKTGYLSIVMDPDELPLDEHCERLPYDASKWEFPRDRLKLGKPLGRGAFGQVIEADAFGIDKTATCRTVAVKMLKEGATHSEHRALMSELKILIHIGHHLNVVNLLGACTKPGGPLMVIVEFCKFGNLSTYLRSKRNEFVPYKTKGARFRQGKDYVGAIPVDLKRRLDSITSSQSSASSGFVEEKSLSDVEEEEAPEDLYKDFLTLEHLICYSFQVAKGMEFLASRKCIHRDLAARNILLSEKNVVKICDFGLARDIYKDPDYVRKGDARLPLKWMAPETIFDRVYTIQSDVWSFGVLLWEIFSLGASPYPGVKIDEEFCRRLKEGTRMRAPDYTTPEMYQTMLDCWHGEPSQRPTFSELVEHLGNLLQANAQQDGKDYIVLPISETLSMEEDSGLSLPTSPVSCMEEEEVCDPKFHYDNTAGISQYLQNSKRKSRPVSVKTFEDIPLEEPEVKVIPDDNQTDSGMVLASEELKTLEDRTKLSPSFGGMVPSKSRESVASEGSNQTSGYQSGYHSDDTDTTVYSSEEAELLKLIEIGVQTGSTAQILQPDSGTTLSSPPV
T2 sequence (Q02763 whole entry): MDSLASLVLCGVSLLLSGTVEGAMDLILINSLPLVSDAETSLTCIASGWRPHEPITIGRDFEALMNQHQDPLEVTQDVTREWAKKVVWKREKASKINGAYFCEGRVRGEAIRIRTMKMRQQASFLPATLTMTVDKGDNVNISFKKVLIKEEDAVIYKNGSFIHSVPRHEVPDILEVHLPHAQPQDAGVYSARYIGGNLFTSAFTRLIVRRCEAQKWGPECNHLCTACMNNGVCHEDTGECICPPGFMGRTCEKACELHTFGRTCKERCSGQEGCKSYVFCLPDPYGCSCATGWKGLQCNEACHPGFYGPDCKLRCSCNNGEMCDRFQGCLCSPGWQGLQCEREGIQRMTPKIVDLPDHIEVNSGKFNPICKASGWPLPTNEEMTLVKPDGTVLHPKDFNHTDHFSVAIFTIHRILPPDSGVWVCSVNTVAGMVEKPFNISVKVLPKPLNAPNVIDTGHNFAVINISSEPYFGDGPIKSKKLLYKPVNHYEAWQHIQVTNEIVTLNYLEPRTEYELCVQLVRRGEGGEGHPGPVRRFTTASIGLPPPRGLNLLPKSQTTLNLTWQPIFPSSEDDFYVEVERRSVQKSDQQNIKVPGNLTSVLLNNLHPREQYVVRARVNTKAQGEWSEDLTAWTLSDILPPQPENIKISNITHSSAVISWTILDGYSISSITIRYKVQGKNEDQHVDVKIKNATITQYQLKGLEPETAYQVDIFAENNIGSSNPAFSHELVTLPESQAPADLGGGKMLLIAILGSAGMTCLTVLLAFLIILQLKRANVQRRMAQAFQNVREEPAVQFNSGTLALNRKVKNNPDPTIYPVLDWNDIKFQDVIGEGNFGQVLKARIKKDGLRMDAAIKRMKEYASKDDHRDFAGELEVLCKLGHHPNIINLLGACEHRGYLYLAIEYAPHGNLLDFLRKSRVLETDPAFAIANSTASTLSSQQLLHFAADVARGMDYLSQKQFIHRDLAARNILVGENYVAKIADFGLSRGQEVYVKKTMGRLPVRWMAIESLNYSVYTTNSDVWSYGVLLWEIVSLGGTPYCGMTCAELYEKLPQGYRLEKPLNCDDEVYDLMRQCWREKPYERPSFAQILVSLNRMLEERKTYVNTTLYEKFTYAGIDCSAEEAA
T3 sequence (P00533 whole entry): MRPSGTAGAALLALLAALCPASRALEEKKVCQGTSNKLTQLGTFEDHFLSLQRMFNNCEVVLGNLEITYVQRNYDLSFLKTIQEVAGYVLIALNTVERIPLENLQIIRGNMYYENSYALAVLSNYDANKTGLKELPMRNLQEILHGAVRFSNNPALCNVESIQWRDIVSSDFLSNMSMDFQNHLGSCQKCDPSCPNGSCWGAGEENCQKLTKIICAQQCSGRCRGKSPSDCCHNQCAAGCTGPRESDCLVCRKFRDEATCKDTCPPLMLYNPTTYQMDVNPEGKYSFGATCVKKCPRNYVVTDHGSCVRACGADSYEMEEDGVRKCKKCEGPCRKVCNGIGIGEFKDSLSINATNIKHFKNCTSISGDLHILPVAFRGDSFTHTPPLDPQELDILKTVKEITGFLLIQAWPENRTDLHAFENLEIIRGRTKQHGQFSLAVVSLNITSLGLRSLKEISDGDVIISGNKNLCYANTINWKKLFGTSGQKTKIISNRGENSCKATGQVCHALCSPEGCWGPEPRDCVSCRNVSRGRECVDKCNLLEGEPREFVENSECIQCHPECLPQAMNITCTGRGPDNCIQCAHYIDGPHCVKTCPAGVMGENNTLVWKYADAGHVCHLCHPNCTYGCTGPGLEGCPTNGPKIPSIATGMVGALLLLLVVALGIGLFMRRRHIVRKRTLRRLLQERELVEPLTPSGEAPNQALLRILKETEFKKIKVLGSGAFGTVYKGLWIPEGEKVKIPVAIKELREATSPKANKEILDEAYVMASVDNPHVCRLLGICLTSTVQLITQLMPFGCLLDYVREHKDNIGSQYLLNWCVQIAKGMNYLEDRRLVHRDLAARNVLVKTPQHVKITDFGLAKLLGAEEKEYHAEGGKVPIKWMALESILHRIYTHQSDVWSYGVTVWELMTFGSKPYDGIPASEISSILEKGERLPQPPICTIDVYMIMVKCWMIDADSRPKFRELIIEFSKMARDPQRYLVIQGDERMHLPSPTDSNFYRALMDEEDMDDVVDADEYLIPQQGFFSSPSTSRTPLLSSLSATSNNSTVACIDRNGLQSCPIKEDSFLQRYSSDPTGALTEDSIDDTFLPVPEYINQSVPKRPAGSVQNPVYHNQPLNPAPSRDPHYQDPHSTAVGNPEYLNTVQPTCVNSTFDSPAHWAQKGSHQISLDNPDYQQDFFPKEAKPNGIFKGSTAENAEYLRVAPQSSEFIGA
T6 sequence (P35916 whole entry): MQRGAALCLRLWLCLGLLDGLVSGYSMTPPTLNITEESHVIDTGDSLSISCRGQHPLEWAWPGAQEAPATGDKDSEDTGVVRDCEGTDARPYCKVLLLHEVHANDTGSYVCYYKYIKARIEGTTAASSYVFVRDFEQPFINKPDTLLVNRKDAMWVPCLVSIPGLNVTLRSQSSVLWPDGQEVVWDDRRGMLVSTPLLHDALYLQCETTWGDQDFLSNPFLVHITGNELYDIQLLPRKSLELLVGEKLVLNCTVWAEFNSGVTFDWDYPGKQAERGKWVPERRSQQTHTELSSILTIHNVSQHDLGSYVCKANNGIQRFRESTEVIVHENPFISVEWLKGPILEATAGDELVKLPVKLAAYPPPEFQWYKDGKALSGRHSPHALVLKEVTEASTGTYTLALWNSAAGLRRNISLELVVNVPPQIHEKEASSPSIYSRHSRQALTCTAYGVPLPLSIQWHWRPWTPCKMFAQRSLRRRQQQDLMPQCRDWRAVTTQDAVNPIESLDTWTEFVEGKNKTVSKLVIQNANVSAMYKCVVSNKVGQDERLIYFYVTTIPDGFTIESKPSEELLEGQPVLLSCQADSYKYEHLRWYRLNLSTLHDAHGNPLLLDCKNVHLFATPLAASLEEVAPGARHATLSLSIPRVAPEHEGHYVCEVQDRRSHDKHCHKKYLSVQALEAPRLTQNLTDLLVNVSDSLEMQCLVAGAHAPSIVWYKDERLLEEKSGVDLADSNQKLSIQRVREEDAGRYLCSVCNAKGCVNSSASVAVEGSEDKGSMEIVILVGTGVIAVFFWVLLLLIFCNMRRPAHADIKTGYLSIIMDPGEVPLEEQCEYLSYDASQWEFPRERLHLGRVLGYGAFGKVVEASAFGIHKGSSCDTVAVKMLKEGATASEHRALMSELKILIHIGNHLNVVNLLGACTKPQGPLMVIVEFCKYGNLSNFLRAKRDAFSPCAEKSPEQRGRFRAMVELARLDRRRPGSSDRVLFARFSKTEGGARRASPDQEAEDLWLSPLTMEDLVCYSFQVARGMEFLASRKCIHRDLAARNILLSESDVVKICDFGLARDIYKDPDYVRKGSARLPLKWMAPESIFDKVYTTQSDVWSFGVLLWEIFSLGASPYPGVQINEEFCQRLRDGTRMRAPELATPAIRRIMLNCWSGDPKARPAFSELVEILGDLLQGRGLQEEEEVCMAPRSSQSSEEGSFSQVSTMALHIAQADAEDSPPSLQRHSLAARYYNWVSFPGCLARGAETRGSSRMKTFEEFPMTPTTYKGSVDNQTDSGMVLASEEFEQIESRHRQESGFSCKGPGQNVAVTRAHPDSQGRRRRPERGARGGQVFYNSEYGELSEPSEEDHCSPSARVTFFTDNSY

As a reminder, the IC50 is the point on the concentration scale where inhibition reaches its midpoint. Low values mean higher potency, high ones lower potency. Turning to `CC(O)C(/N=C1\C(O)=CC(=O)C(O)=C1CC1CCCC2CCCCC21)C(=O)O` (configuration not stated), the NI result in [1] and in assay [6] was “inactive” each time. In addition, the IC50 against Angiopoietin-1 receptor [2] is 9 µM; in [3], more than 100 µM; in assay [4] it was more than 50 µM; in assay [5], 0.5 µM.
Turning to `CC(O)C(/N=C1C=C(O)/C(=N\C(C(=O)O)C(C)O)C=C/1O)C(=O)O` (configuration not stated), the NI entry in [1] and in assay [7] was “inactive” throughout. In addition, the IC50 came to 5 µM on Angiopoietin-1 receptor [2], 44 µM in assay [3], 6 µM in [5] and 3 µM in [8].
As for `COC1=CC(=O)C=C(/C=C2\CCCC3CCCCC23)C1=O` (configuration not stated), the IC50 is 14 µM against Angiopoietin-1 receptor [2], more than 100 µM in [3] and more than 100 µM in assay [10]. Moreover, the NI result in assay [7], in assay [6] and in assay [9] was “inactive” throughout.
In the case of `COC1=CC(=O)C(N[C@@H](CO)C(=O)O)=CC1=O`, the NI result (in assay [11]; on Angiopoietin-1 receptor [12]; in [6]) was “inactive” each time. The IC50 was 8 µM in assay [4], more than 50 µM in assay [5] and more than 100 µM in [10].
On to `COC1=CC(=O)C=C(Cc2ccccc2)C1=O`, for which the NI entry in assay [1], in assay [11], in assay [7], in assay [6] and in assay [9] was “inactive” in each case. Also, at Angiopoietin-1 receptor [2], half-maximal inhibition (IC50) was put at 18 µM.
In the case of `COC1=CC(=O)C=CC1=O`, the NI result (in assay [11]; in assay [7]; on Angiopoietin-1 receptor [12]; in assay [6]; in assay [9]) was “inactive” in each case. This compound also came in with an IC50 in assay [10] of 29 µM.
With `CC1=CCC[C@H]2[C@](C)(CC3=C(O)C(O)=C/C(=N\[C@@H](CO)C(=O)O)C3=O)[C@H](C)CC[C@]12C`, the NI entry (in assay [1]; in [11]; at Angiopoietin-1 receptor [12]; in [6]; in assay [9]) was “inactive” throughout. This compound also came in with an IC50 in [4] of 20 µM.

The values above are taken from ChEMBL document CHEMBL1145828, “Development of natural product-derived receptor tyrosine kinase inhibitors based on conservation of protein domain fold” (J Med Chem, 2003).
